# According to ChEMBL document CHEMBL1150623, “Two new triterpene esters from the twigs of Brachylaena ramiflora from the Madagascar rainforest” (J Nat Prod, 2002):
# Numbered stars: 1 amine (or outer) side, 2 acyl side, 3 side chain; on linkers, the order of the positions; unused ones are H or OH. Bridge positions count the residues as written; N and C are the ends. Square brackets hold non-standard residues; d marks the D form. Peptide text beside a SMILES is read from it. I, II: the chains in the order shown. Actinocin(1to9) = Cc1c2oc3c(C)ccc(C(=O)[*:2])c3nc-2c(C(=O)[*:1])c(N)c1=O; NMeV = CN[C@H](C(=O)O)C(C)C; Sar = CNCC(=O)O
# Tested on: A2780
# Experiment: Cytotoxicity against human A2780 cells
# Assay type: functional, cell-based
row,SMILES,IC50 [µg/mL]
1,CCCCCCCCCCCCCCCC(=O)O[C@H]1CC[C@]2(C)[C@H]3CC=C4[C@@H]5CC(C)(C)CC[C@]5(C)CC[C@@]4(C)[C@]3(C)CC[C@H]2C1(C)C,13.4
2,CCCCCCCCCCCCCCCC(=O)O[C@H]1CC[C@]2(C)[C@H]3CC=C4[C@@H]5[C@@H](C)[C@H](C)CC[C@@]5(C)CC[C@@]4(C)[C@]3(C)CC[C@H]2C1(C)C,15.4
3,"Cc1c2oc3c(C)ccc(C(=O)N[C@@H]4C(=O)N[C@H](C(C)C)C(=O)N5CCC[C@H]5C(=O)N(C)CC(=O)N(C)[C@@H](C(C)C)C(=O)O[C@@H]4C)c3nc-2c(C(=O)N[C@@H]2C(=O)N[C@H](C(C)C)C(=O)N3CCC[C@H]3C(=O)N(C)CC(=O)N(C)[C@@H](C(C)C)C(=O)O[C@@H]2C)c(N)c1=O [DACTINOMYCIN] (I: T[dV]P[Sar][NMeV] / II: T[dV]P[Sar][NMeV]; ester I:1-I:C, II:1-II:C; linker I:N-II:N via Actinocin(1to9))",0.002
4,C=C(C)[C@H]1CC[C@]2(C)C3CC[C@@H]4[C@@]5(C)CC[C@H](OC(=O)CCCCCCCCCCCCCCC)C(C)(C)[C@@H]5CC[C@@]4(C)[C@]3(C)CC[C@@H]12 (stereo partly drawn) [HOPENYL PALMITATE],11.6
5,CCCCCCCCCCCCCCCC(=O)O[C@H]1CC[C@]2(C)[C@H]3CC=C4[C@@H]5CCCC(C)(C)[C@@]5(C)CC[C@@]4(C)[C@]3(C)CC[C@H]2C1(C)C [KAIRATENYL PALMITATE],10
6,C=C(C)[C@@H]1CC[C@]2(C)CC[C@]3(C)[C@H](CC[C@@H]4[C@@]5(C)CC[C@H](OC(C)=O)C(C)(C)[C@@H]5CC[C@]43C)[C@@H]12 [LUPENYL ACETATE],15
7,C=C(C)[C@@H]1CC[C@]2(C)CC[C@]3(C)[C@H](CC[C@@H]4[C@@]5(C)CC[C@H](O)C(C)(C)[C@@H]5CC[C@]43C)[C@@H]12 [LUPEOL],16.2
8,CC(=O)O[C@H]1CC[C@]2(C)[C@H]3CC=C4[C@@H]5CC(C)(C)CC[C@]5(C)CC[C@@]4(C)[C@]3(C)CC[C@H]2C1(C)C [beta-AMYRIN ACETATE],12.1
